Assay results: patent US5580895A, “1,5-benzodiazepine derivatives” (Glaxo SpA, priority 1992, dated 1996)

Experiments:
[1] = target: CCK-A receptor; assay: CCK receptor binding, CCK-A (Pancreas Assay)
Method: (§1) The greater affinity of the compounds of the invention for the CCK-B receptor over the CCK-A receptor has also been established using the CCK receptor binding assays described by G. Dal Fornos et al., J. Pharmcol. Exp & Ther. 261, 1056-1063, 1992.
(§2) The binding affinity of the compounds of the invention for the CCK-A receptor (Pancreas Assay) and CCK-B receptor (guinea pig cortex assay) was determined using the procedure of G Dal Forno et al J. Pharmacol. Exp & Ther. 261-1056-1063. The pKi values determined with representative compounds of invention were as follows: […]

[2] = test system: mice and rats; assay: Toxicity / untoward effects on oral administration to mice and rats; type: in vivo; conditions: orally to mice and rats at doses exhibiting anxiolytic activity
From the text: (§3) The compounds of the invention are essentially non-toxic and therapeutically useful doses.

[3] = test system: mice and rats; assay: Anxiolytic activity, oral, mice and rats; type: in vivo; conditions: orally to mice and rats
From the text: as §3

[4] = target: T1, CCK-A receptor (Cavia porcellus, UniProt Q63931); assay: CCK-A antagonist activity, guinea pig isolated ileum longitudinal muscle myenteric plexus (inhibition of contractile activity of CCK-8); type: cell-based
T1 construct: guinea pig isolated ileum longitudinal muscle myenteric plexus preparation; from tissue; host or cells: guinea pig isolated ileum longitudinal muscle-myenteric plexus
T1 sequence (Q63931 1-430): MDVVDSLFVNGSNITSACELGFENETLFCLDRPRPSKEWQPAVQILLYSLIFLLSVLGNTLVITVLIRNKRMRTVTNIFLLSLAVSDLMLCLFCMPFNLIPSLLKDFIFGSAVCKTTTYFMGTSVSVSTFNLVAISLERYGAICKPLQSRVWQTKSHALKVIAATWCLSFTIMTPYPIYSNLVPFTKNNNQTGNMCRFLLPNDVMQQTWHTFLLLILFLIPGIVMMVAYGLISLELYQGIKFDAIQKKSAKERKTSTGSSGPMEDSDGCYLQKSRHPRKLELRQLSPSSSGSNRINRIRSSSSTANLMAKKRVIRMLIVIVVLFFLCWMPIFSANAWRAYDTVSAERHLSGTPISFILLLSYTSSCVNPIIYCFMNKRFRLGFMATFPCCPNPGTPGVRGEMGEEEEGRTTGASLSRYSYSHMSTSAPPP
Method: The preparation and use of guinea-pig isolated ileum longitudinal muscle-myenteric plexus has been described by K-H Buchheit et al in Nauyn-Schmeideberg's Arch. Pharmacol, (1985), 329, p36-41 and by V. L. Lucaites et al (1991) in J. Pharmacol. Exp. Ther., 256, 695-703.
The CCK-A antagonist and CCK-B antagonist activities of compounds of the invention were determined using the guinea pig isolated ileum longitudinal muscle myenteric plexus preparation. The compounds were tested using the procedure G Dal
Forno et al J. Pharmacol. Exp & Ther. 261-1056-1063 1992 and the pKb value for each compound was determined.

[5] = target: T2, CCK-B receptor (Cavia porcellus, UniProt H0VZC5); assay: CCK receptor binding, CCK-B (guinea pig cortex assay)
T2 construct: CCK-B receptor (guinea pig cortex assay); from tissue; host or cells: guinea pig cortex
Method: as §1, §2

T2 sequence (H0VZC5 entry or part of it): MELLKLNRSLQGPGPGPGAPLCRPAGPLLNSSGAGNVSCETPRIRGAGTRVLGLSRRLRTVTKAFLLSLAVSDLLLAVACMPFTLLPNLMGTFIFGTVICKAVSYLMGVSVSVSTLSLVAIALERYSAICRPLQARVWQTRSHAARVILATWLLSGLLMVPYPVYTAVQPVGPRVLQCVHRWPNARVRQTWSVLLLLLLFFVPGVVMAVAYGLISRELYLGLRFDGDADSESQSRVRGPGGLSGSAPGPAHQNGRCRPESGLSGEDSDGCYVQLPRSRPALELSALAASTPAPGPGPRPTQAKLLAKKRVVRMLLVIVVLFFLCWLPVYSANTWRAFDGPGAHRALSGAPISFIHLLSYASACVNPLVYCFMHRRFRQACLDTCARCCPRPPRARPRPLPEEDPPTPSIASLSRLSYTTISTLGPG

Compound | pKi CCK-A [1] | other results
O=C(Nc1cccc([N+](=O)[O-])c1)NC1C(=O)N(CC23CC4CC(CC(C4)C2)C3)c2ccccc2N(c2ccccc2)C1=O (centres unmarked) [Example 39, N-[1-(1-Adamantylmethyl)-2,4-dioxo-5-phenyl-2,3,4,5-tetrahydro-1H-1,5-benzodiazepin-3-yl]-N'-(3-nitrophenyl)urea] | 6.52 | –
CN(C)c1ccc(NC(=O)NC2C(=O)N(CCC3CCCC3)c3ccccc3N(c3ccccc3F)C2=O)cc1 (centres unmarked) [Example 30, N-[1-(2-cyclopentyl-ethyl)-2,4-dioxo-5-(2-fluorophenyl)-2,3,4,5-tetrahydro-1H-1,5-benzodiazepin-3-yl]-N'-[4-(dimethylamino)phenyl]urea] | 7.00 | –
CC(C)CCN1C(=O)C(NC(=O)Nc2ccccc2)C(=O)N(c2ccccc2)c2cc(Cl)ccc21 (centres unmarked) [Example 9, N-[7-Chloro-2,4-dioxo-1-(3-methylbut-1-yl)-5-phenyl-2,3,4,5-tetrahydro-1H-1,5-benzodiazepin-3-yl]-N'-phenylurea] | 6.02 | –
CC(C)CCN1C(=O)C(NC(=O)Nc2ccccc2)C(=O)N(c2ccccc2)c2cc(Cl)c(Cl)cc21 (centres unmarked) [Example 11, N-[7,8-dichloro-2,4-Dioxo-1-(3-methylbut-1-yl)-5-phenyl-2,3,4,5-tetrahydro-1H-1,5-benzodiazepin-3-yl]-N'-phenylurea] | 5.80 | –
CCOC(=O)c1cccc(NC(=O)NC2C(=O)N(CC34CC5CC(CC(C5)C3)C4)c3ccccc3N(c3ccccc3)C2=O)c1 (centres unmarked) [Example 41, N-[1-(1-Adamantylmethyl)-2,4-dioxo-5-phenyl-2,3,4,5-tetrahydro-1H-1,5-benzodiazepin-3-yl]-N'-(3-ethoxycarbonylphenyl)urea] | 6.09 | –
CC(C)CCN1C(=O)C(NC(=O)Nc2cccc(N(C)C)c2)C(=O)N(c2ccccc2F)c2ccccc21 (centres unmarked) [Example 4, N-[2,4-dioxo-5-(2-fluorophenyl)-1-(3-methylbut-1-yl)-2,3,4,5-tetrahydro-1H-1,5-benzodiazepin-3-yl]-N'-(3-dimethylamino)phenylurea] | 6.9 | –
O=C(Nc1ccccc1)NC1C(=O)N(CC23CC4CC(CC(C4)C2)C3)c2ccccc2N(c2ccccc2)C1=O (single isomer, unassigned; (+)) [Example 45, (+)-N-[1-(Adamantanmethyl)-2,4-dioxo-5-phenyl-2,3,4,5-tetrahydro-1H-1,5-benzodiazepin-3-yl]-N'-phenylurea] | 5.95 | untoward effects [2]: no untoward effects were observed; anxiolytic activity [3]: exhibits anxiolytic activity
CC(C)(C)CCN1C(=O)C(NC(=O)Nc2ccccc2)C(=O)N(c2ccccc2)c2ccccc21 (centres unmarked) [Example 16, N-[1-(3,3-Dimethylbutyl)-2,4-dioxo-5-phenyl-2,3,4,5-tetrahydro-1H-1,5-benzodiazepin-3-yl]-N'-phenylurea] | 6.95 | –
O=C(Nc1ccccc1)NC1C(=O)N(CC2CC3C=CC2C3)c2ccccc2N(c2ccccc2)C1=O (centres unmarked) [Example 31, N-[1-(Bicyclo[2.2.1]-5-heptene-2-ylmethyl)-2,4-dioxo-5-phenyl-2,3,4,5-tetrahydro-1H-1,5-benzodiazepin-3-yl]-N'-phenylurea] | 6.76 | –
CC(C)CCN1C(=O)C(NC(=O)Nc2ccccc2)C(=O)N(c2ccccc2)c2ccccc21 (single isomer, unassigned; (+)) [Example 26, (+)-N-[2,4-Dioxo-5-phenyl-1-(3-methylbut-1-yl)-2,3,4,5-tetrahydro-1H-1,5-benzodiazepin-3-yl]-N'-phenylurea] | – | Kb ([4]; read-out: pKb CCK-A (converted)): ≥ 3160 nM
O=C(Nc1ccccc1)NC1C(=O)N(CC23CC4CC(CC(C4)C2)C3)c2ccccc2N(c2ccccc2)C1=O (centres unmarked) [Example 14, N-[1-(1-Adamantyl)methyl-2,4-dioxo-5-phenyl-2,3,4,5-tetrahydro-1H-1,5-benzodiazepin-3-yl]-N'-phenylurea] | 6.15 | –
CC(C)(C)C(O)CN1C(=O)C(NC(=O)Nc2ccccc2)C(=O)N(c2ccccc2F)c2ccccc21 (centres unmarked) [Example 7A, N-[1-(3,3-Dimethyl-2-hydroxybut-1-yl)-2,4-dioxo-5-(2-fluorophenyl)-2,3,4,5-tetrahydro-1H-1,5-benzodiazepin-3-yl]-N'-phenylurea] | 6.33 | –
CC(C)CCN1C(=O)C(NC(=O)Nc2cccc(N(C)C)c2)C(=O)N(c2ccccc2F)c2ccccc21 (single isomer, unassigned; (+)) [Example 27, (+)-N-[2,4-Dioxo-5-(2-fluorophenyl)-1-(3-methylbut-1-yl)-2,3,4,5-tetrahydro-1H-1,5-benzodiazepin-3-yl]-N'-[3-(N,N-dimethylamino)phenyl]urea] | 6.83 | Ki [5]: 0.288 nM
CC(C)CCN1C(=O)C(NC(=O)Nc2ccccc2)C(=O)N(c2ccccc2)c2ccccc21 (centres unmarked) [Example 25, N-[2,4-Dioxo-5-phenyl-1-(3-methylbut-1-yl)-2,3,4,5-tetrahydro-1H-1,5-benzodiazepin-3-yl]-N'-phenylurea] | – | pKb CCK-A [4]: < 6.0
